Experimental data from patent publication US10005739B2, “Quinazolinone and isoquinolinone derivative” (CHUGAI SEIYAKU KABUSHIKI KAISHA, priority 2013, dated 2018).

molecular target: DDR1 (Homo sapiens (Human), UniProt Q08345); experiment: Measurement of DDR1 enzyme inhibitory activity (phosphorylation of biotinylated peptide, time-resolved fluorescence); format: biochemical; conditions: human DDR1 enzyme, biotinylated peptide phosphorylation; read-out: DDR1 enzyme inhibition assay IC50
Protocol: 1. Measurement of DDR1 Enzyme Inhibitory Activity
The DDR1 enzyme inhibitory activity was determined with human DDR1 enzyme prepared using the baculovirus expression system, based on the inhibitory activity of phosphorylation of a biotinylated peptide ([…]) by the enzyme. The phosphorylated biotinylated peptide was detected using time-resolved fluorescence, with an anti-phosphorylated tyrosine antibody conjugated with europium cryptate and streptavidin conjugated with XL665 which is a derivative of allophycocyanin.

DDR1, sequence (Q08345 19-913): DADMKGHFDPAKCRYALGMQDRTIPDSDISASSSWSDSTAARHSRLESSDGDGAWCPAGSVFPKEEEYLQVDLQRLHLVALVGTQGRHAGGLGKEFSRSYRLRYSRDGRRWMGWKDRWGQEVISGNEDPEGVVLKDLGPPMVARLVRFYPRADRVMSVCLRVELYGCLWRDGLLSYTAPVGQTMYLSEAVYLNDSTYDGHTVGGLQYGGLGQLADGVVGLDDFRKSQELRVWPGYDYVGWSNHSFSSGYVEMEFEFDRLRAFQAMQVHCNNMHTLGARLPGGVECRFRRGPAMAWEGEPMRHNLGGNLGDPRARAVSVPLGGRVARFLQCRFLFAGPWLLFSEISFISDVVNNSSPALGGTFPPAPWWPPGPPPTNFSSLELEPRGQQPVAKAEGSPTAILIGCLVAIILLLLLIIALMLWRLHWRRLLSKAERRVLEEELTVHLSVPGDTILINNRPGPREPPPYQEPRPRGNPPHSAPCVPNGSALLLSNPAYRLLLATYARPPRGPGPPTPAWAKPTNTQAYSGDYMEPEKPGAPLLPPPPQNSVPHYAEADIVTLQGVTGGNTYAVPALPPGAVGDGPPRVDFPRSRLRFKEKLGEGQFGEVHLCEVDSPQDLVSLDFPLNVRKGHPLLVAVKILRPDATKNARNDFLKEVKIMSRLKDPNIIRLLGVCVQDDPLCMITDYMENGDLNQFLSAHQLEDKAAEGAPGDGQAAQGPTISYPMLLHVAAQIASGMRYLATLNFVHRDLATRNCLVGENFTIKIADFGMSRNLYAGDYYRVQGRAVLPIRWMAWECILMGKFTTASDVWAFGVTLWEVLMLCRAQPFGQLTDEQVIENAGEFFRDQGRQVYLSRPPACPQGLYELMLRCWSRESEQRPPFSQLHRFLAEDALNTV

`CCc1ccc2ncn(Nc3cc(Cl)ccc3S(=O)(=O)CC)c(=O)c2c1` [Compound A-53, 3-(5-Chloro-2-ethylsulfonylanilino)-6-ethylquinazolin-4-one] and `CCCc1ccc2ncn(Nc3cc(Cl)ccc3S(=O)(=O)CC)c(=O)c2c1` [Compound A-55, 3-(5-Chloro-2-ethylsulfonylanilino)-6-propylquinazolin-4-one] are within 1.5-fold of each other in IC50: 180 nM for the first, 240 nM for the second.

`CCCc1ccc2ncn(Nc3cc(Cl)ccc3SCC)c(=O)c2c1` [Compound A-54, 3-(5-Chloro-2-ethylsulfanylanilino)-6-propylquinazolin-4-one] and `CCSc1ccc(Cl)cc1Nn1cnc2ccc(N)cc2c1=O` [Compound A-59, 6-Amino-3-(5-chloro-2-ethylsulfanylanilino)quinazolin-4-one] are within 1.5-fold of each other in IC50: 330 nM for the first, 480 nM for the second.

Going from `CCSc1ccc(Cl)cc1Nn1cnc2ccc([N+](=O)[O-])cc2c1=O` [Compound A-56, 3-(5-Chloro-2-ethylsulfanylanilino)-6-nitroquinazolin-4-one] to `CCSc1ccc(Cl)cc1Nn1cnc2ccc(I)cc2c1=O` [Compound A-60, 3-(5-Chloro-2-ethylsulfanylanilino)-6-iodoquinazolin-4-one], the IC50 rises from 99 nM to 220 nM (2.2-fold).

First: CCS(=O)(=O)c1ccc(Cl)cc1Nn1cnc2ccc([N+](=O)[O-])cc2c1=O [Compound A-57, 3-(5-Chloro-2-ethylsulfonylanilino)-6-nitroquinazolin-4-one]
Second: CCS(=O)(=O)c1ccc(Cl)cc1Nn1cnc2ccc(N)cc2c1=O [Compound A-58, 6-Amino-3-(5-chloro-2-ethylsulfonylanilino)quinazolin-4-one]
The IC50 of the first is 34-fold lower: 120 nM for the first, 4050 nM for the second. The first is the more potent here.

`CCS(=O)(=O)c1ccc(Cl)cc1Nn1cnc2ccc(I)cc2c1=O` [Compound A-61, 3-(5-Chloro-2-ethylsulfonylanilino)-6-iodoquinazolin-4-one] and `C=Cc1ccc2ncn(Nc3cc(Cl)ccc3S(=O)(=O)CC)c(=O)c2c1` [Compound A-64, 3-(5-Chloro-2-ethylsulfonylanilino)-6-ethenylquinazolin-4-one] are within 1.5-fold of each other in IC50: 290 nM for the first, 200 nM for the second.

Going from `C=C(C)c1ccc2ncn(Nc3cc(Cl)ccc3S(=O)(=O)CC)c(=O)c2c1` [Compound A-62, 3-(5-Chloro-2-ethylsulfonylanilino)-6-prop-1-en-2-ylquinazolin-4-one] to `CCS(=O)(=O)c1ccc(Cl)cc1Nn1cnc2ccc(C(C)C)cc2c1=O` [Compound A-63, 3-(5-Chloro-2-ethylsulfonylanilino)-6-propan-2-ylquinazolin-4-one], the IC50 rises from 110 nM to 200 nM (1.8-fold).

Compared with `CC#Cc1ccc2ncn(Nc3cc(Cl)ccc3S(=O)(=O)CC)c(=O)c2c1` [Compound A-65, 3-(5-Chloro-2-ethylsulfonylanilino)-6-prop-1-ynylquinazolin-4-one], `CCS(=O)(=O)c1ccc(Cl)cc1Nn1cnc2ccc(SC)cc2c1=O` [Compound A-66, 3-(5-Chloro-2-ethylsulfonylanilino)-6-methylsulfanylquinazolin-4-one] is 60-fold lower in IC50: 3110 nM for the first, 52 nM for the second. The second is the more potent here.

Going from `CSc1ccc(Cl)cc1Nn1cnc2c(Br)cc(C)cc2c1=O` [Compound B-1, 8-Bromo-3-(5-chloro-2-methylsulfanylanilino)-6-methylquinazolin-4-one] to `CCCSc1ccc(Cl)cc1Nn1cnc2c(Br)cc(C)cc2c1=O` [Compound B-3, 8-Bromo-3-(5-chloro-2-propylsulfanylanilino)-6-methylquinazolin-4-one], the IC50 falls from 250 nM to 140 nM (1.8-fold). The second is the more potent here.

`Cc1cc(Br)c2ncn(Nc3cc(Cl)ccc3S(C)(=O)=O)c(=O)c2c1` [Compound B-2, 8-Bromo-3-(5-chloro-2-methylsulfonylanilino)-6-methylquinazolin-4-one] and `CCCS(=O)(=O)c1ccc(Cl)cc1Nn1cnc2c(Br)cc(C)cc2c1=O` [Compound B-4, 8-Bromo-3-(5-chloro-2-propylsulfonylanilino)-6-methylquinazolin-4-one] are within 1.5-fold of each other in IC50: 160 nM for the first, 110 nM for the second.

With `Cc1cc(Br)c2ncn(Nc3cc(Cl)ccc3Sc3ccccc3)c(=O)c2c1` [Compound B-12, 8-Bromo-3-(5-chloro-2-phenylsulfanylanilino)-6-methylquinazolin-4-one] the IC50 was 150 nM.
